Assay results published in patent US20220259202A1, “1-(4-(AMINOMETHYL)BENZYL)-2-BUTYL-2H-PYRAZOLO[3,4-C]QUINOLIN-4-AMINE DERIVATIVES AND RELATED COMPOUNDS AS TOLL-LIKE RECEPTOR (TLR) 7/8 AGONISTS, AS WELL AS ANTIBODY DRUG CONJUGATES THEREOF FOR USE IN CANCER THERAPY AND DIAGNOSIS” (SUTRO BIOPHARMA, INC., priority 2019, published 2022).

Key:
Type in all cases: cell-based
human and mouse TLRs = assay: HEK293 SEAP reporter panel of human and mouse TLRs, specificity; conditions: 16 hrs
Excerpt: In this example, the activity of the Compound 1 to stimulate different human and mouse TLR pathways was investigated on HEK293 cells transfected with inducible SEAP (secreted embryonic alkaline phosphatase) reporter genes and also expressing different human TLRs (TLR2, TLR3, TLR4, TLR5, TLR7, TLR8, TLRS) or mouse TLRs (TLR2, TLR3, TLR4, TLR5, TLR7, TLR8, TLR13). Compound A
HEK293 reporter cell lines were purchased from Invivogen and cell lines were maintained in manufacture recommended culture medium with required supplemental antibiotics. On the day of assay, the cells were harvested with Accutase and counted by the Vi-CELL Cell Viability Analyzers. Cells were re-suspended in HEK blue detection medium and a total of 10000 cells were seeded in each well of a 384-well flat bottom plate. […] Assay plates were cultured at 37° C. in a CO2 incubator for 16 hrs. HEK-Blue™ Detection medium changes to a purple/blue color in the presence of secreted SEAP, which can be detected by spectrophotometry at 620-655 nm. Data was fitted with non-linear regression analysis, using a log(inhibitor) vs. response-variable slope, 3-parameter fit with GraphPad Prism.

mouse TLR7 = molecular target: T1, mouse TLR7 (Mus musculus, UniProt P58681); assay: HEK293 SEAP reporter assay, mouse TLR7 (Biological Example 1); conditions: HEK293-mouseTLR7 reporter cells, 4 hrs; read-out: mTLR7 EC50
T1 construct: host or cells: HEK293
T1 sequence (P58681 27-1050): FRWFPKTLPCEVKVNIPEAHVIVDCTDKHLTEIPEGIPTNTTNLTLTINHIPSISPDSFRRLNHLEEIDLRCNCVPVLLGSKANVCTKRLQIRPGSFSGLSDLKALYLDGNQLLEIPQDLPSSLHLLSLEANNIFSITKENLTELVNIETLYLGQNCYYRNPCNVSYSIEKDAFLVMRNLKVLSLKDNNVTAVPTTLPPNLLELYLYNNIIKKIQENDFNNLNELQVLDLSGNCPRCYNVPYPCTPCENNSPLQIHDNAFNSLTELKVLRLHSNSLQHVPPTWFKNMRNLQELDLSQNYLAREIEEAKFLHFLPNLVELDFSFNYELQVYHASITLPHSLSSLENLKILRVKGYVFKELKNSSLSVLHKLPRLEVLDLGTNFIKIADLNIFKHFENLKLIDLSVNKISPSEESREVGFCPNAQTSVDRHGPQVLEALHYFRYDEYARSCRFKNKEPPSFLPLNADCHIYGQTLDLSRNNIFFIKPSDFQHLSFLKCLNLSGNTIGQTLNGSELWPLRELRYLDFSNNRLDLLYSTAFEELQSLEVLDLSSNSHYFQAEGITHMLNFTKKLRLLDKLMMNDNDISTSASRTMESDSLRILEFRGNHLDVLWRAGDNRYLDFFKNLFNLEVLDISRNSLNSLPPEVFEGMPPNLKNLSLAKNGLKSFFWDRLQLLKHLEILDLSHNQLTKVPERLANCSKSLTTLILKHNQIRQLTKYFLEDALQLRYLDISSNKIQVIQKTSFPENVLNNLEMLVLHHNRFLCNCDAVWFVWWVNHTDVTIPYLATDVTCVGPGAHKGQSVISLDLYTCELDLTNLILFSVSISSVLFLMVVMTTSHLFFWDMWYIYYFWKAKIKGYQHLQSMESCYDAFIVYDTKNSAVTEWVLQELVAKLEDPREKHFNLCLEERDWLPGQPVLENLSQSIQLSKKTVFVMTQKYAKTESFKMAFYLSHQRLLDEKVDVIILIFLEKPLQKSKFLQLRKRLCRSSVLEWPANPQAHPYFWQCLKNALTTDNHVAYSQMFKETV
Method: In this example, the activity of the TLR7 agonists to activate human TLR7, hTLR7 (or human TLR8, hTLR8, or mouse TLR7, mTLR7) pathway was evaluated on HEK293 reporter cells transfected with human TLR7 (or mouse TLR7 or human TLR8) and an inducible SEAP (secreted embryonic alkaline phosphatase) reporter gene. The SEAP reporter gene is placed under the control of the IFN-β minimal promoter fused to five NF-κB and AP-1-binding sites. Stimulation with a TLR7 agonist activates NF-KB and AP-1 which induces the production of SEAP. Levels of SEAP was determined with HEK-Blue Detection medium.
HEK293-humanTLR7, HEK293-mouseTLR7 and HEK293-humanTLR8 reporter cell lines were purchased from Invivogen and cell lines were maintained in manufacture recommended culture medium with required supplemental antibiotics. On the day of assay, the cells were harvested with Accutase and counted by the Vi-CELL Cell Viability Analyzers. Cells were re-suspended in HEK blue detection medium and a total of 10000 cells were seeded in each well of a 384-well flat bottom plate. Serial dilutions of TLR7 agonists free drugs (1:3 serial dilution starting from 5 μM) was added into treatment wells. Assay plates were cultured at 37° C. in a CO2 incubator for […]. HEK-Blue™ Detection medium changes to a purple/blue color in the presence of secreted SEAP, which can be detected by spectrophotometry at 620-655 nm. […]

human PBMCs = assay: Compound-induced immune cell activation (CD86 expression, flow cytometry); conditions: monocytes, B cells, cDCs and pDCs (FIG. 1A-1D); 48 hr
Excerpt: This example evaluates the ability of Compound 1 to stimulate the activation of different immune cells populations (monocyte, B cell, and DCs) in human PBMCs (Peripheral blood mononuclear cells), cyno PBMCs and mouse splenocytes. Compound A, above, and resiquimod, below, were used as controls in this assay
Peripheral blood mononuclear cells (PBMCs) were isolated from fresh collected blood from two healthy human donors and two cynomolgus monkey donors using Leukosep tube and Nycoprep 1.077 buffer according to the manufacture's recommendation. Mouse splenocytes were isolated from C57/BL6 mouse spleens by macerating and straining over a 70 μm cell strainer. Isolated PBMCs or splenocytes were then frozen done using frozen medium. On the day of the assay, PBMCs or splenocytes were thawed and cultured in PBMC culture medium (RPMI supplemented with 10% heat-inactivated fetal bovine serum from Hyclone, 1% Penicillin/Streptomycin and 2 mmol/L-glutamax). 300k of PBMC or splenocytes in 50 μL of culture medium were seeded in 96-well cell culture plates. 50 μL of the test articles (formulated at 2× of starting concentration, 1:4 serial dilution) were then added into the well. The cell mixtures were co-cultured in the presence of test articles and 10 pg/mL LPS-RS for 48 hr and collected by Accutase. […] Cells were washed, fixed with 2% PFA overnight, and read on the Attune NxT cytometer (Thermo Fisher). […]

CCCCn1nc2c(N)nc3ccccc3c2c1Cc1ccc(CN)cc1 [Compound 1, 1-(4-(aminomethyl)benzyl)-2-butyl-2H-pyrazolo[3,4-c]quinolin-4-amine]
specificity among human and mouse TLRs (human and mouse TLRs): very specific to human and mouse TLR7 and human TLR8
EC50 (mouse TLR7): 0.0291 µM
activation of immune cells in human PBMCs (human PBMCs): very potent in activating
